Laboratory results: PubChem BioAssay (NCI)
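Assay format: 96-well plates, 48-hour exposure. GI50: concentration for 50% inhibition of growth. TGI: total growth inhibition.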

Columns and labels:
Assay in all cases: inhibition of tumour cell growth, NCI panel, 48 h
[1] = test system: NCI/ADR-RES ovarian
[2] = test system: IGROV1 ovarian
[3] = test system: SK-MEL-5 melanoma
[4] = test system: SF-295 CNS
[5] = test system: A498 renal
[6] = test system: HOP-92 NSCLC
[7] = test system: CAKI-1 renal
[8] = test system: ACHN renal
[9] = test system: SW-620 colon
[10] = test system: MDA-N

Structure (SMILES)	TGI [1] [µM]	TGI [2] [µM]	TGI [3] [µM]	TGI [4] [µM]	TGI [5] [µM]	TGI [6] [µM]	TGI [7] [µM]	TGI [8] [µM]	TGI [9] [µM]	GI50 [1] [µM]	GI50 [2] [µM]	GI50 [3] [µM]	GI50 [4] [µM]	GI50 [5] [µM]	GI50 [6] [µM]	GI50 [7] [µM]	GI50 [8] [µM]	GI50 [9] [µM]	TGI [10] [µM]
CCCCCCCCC[C@@H]1C[C@@H]2CCC3C(C(=O)OCCCCNC(=O)OCc4ccccc4)=C(C)NC(=N1)N32 (some centres undefined)	7	6.11	2.93	11.2	18.9	7.08	14.9	12.2	14.2										
CCNC(=O)CCCCC(=O)c1c(C)[nH]c(/C=C2\N=C(c3ccc[nH]3)C=C2OC)c1C	10.8	> 100	24.9	7.6	21	9.69	5	3.34	3.51	2.94	3.82	11.7	2.81	8.19	2.04	2.09	1.8	1.94	
COc1cc(C2c3cc4c(cc3[C@@H](Nc3ccc(N5CCOCC5)cc3)C3COC(=O)[C@H]23)OCO4)cc(OC)c1O (some centres undefined)	26.2	26	2.45	2.42	3.2	8.74	2.63		10.1										
Cc1cc(O)c(/C=N/C(=O)NN)c(=O)o1	> 100	> 100	> 100	> 100		> 100	> 100	> 100	> 100										> 100
CCOC(=O)C1CCn2c(nc3c(=O)n(C)c(=O)n(C)c32)S1 (centres undefined)		> 100	> 100	> 100			> 100	> 100	> 100										
CCOC(=O)CCc1c(C)c2c(O)cc(O)cc2oc1=O	> 100	> 100	> 100	> 100	> 100	> 100	> 100		> 100										
CC1(C)CC(=O)C2=C(C1)N(c1ccccc1)C1(O)C=CC(=O)C3=C(O)c4ccccc4C(=O)C321 (centres undefined)	> 100	75.5		> 100		58.5	86	46.2											
CCOC(=O)c1ccc2c(=O)n3c(C(=O)OCC)ccc3c(=O)n12	> 100	> 100	> 100	> 100	> 100		> 100	> 100	> 100										> 100
CN(C)S(=O)(=O)c1cccc(-c2nc3sc4c(c3c(=O)[nH]2)CCCC4)c1	> 100		> 100	4.01			> 100		> 100	2.83		> 100	1.35			> 100		1.78	
CCCCCCCCCCCCCCCCCCNC(=S)/N=C/c1c(O)cc(C)oc1=O	> 100	55.8	> 100	64.7		> 100	64.1	65.4	96										> 100
CCOC(=O)CC(=Nc1cc(C)on1)N(CC)CC		> 100	> 100		> 100	> 100	> 100	> 100	> 100										
